Measured values published in patent US8236792B2, “Substituted pyrrolidine amides as modulators of the histamine H3 receptor” (Janssen Pharmaceutica NV, priority 2008, dated 2012).
Like-named read-outs stand apart in the source and are kept apart here.

Columns and labels:
[1] = biological target: T1, cloned rat H3 receptors (Rattus norvegicus, UniProt Q9QYN8); assay: H3 Receptor Binding (Rat)
T1 construct: expressed in transfected cells
Procedure: Compounds were tested for binding to cloned rat H3 receptors, stably expressed in SK-N-MC cells.
Compounds were tested in their free base or hydrochloride salt forms.

[2] = biological target: T2, rat H3 receptor (Rattus norvegicus, UniProt Q9QYN8); assay: Cyclic AMP Accumulation (rat H3 reporter subline); type: cell-based
T2 construct: expressed in transfected cells; host or cells: SK-N-MC sublines with a reporter construct
T2 sequence (Q9QYN8 whole entry): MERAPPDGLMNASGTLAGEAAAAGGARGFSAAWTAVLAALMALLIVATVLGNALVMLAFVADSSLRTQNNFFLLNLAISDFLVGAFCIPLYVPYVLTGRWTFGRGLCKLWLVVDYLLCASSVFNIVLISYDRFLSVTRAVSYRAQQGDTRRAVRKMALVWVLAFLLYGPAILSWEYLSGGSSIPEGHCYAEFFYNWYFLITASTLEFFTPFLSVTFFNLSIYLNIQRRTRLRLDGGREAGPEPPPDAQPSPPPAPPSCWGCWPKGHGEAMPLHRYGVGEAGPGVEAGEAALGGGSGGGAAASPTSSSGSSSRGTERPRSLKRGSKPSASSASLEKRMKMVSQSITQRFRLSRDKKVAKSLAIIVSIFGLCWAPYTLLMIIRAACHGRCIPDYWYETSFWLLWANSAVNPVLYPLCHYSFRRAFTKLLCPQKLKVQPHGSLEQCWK
Procedure: (§1) Sublines of SK-N-MC cells were created that expressed a reporter construct and either the human or rat H3 receptor. […] Compounds were tested in their free base or trifluoroacetate salt forms.

[3] = biological target: T3, human H3 receptor (Homo sapiens, UniProt Q9Y5N1); assay: H3 Receptor Binding (Human) Method 2, [125I]-iodoproxyfan competitive radioligand binding; design: expressed in transfected cells
T3 sequence (Q9Y5N1 whole entry): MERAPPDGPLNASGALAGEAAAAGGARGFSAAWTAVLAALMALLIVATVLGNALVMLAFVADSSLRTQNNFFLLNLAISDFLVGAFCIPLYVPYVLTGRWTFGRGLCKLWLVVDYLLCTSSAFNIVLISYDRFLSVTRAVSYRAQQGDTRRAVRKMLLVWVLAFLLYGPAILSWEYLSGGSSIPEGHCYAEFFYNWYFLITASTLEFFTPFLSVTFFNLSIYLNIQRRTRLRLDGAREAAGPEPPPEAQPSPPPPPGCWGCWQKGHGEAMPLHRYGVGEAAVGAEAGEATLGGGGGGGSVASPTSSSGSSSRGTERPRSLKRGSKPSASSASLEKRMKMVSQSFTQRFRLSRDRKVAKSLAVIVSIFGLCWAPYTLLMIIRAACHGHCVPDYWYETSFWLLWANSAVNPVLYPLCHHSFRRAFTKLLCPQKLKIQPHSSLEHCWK

[4] = biological target: T3, human H3 receptor; assay: Cyclic AMP Accumulation (human H3 reporter subline); type: cell-based; design: expressed in transfected cells; host or cells: SK-N-MC sublines with a reporter construct; conditions: SK-N-MC subline with reporter construct and human H3 receptor, free base or trifluoroacetate salt, average; for Kb: read-out: Human pA2 (converted)
Procedure: as §1

[5] = biological target: T4, cloned human H3 receptors (Homo sapiens, UniProt Q9Y5N1); assay: H3 Receptor Binding (Human) Method 1; conditions: receptor stably expressed in SK-N-MC cells, free base forms, average of results
T4 construct: expressed in transfected cells
T4 sequence (Q9Y5N1 whole entry): as above

[6] = SK-N-MC subline with reporter construct and rat H3 receptor, free base or trifluoroacetate salt, average, read-out: Rat pA2 (converted)
[7] = receptor stably expressed in SK-N-MC cells, free base or hydrochloride salt, average of results, read-out: Rat H3 Ki
[8] = SK-N-MC subline with reporter construct and rat H3 receptor, free base or trifluoroacetate salt, average

T1 sequence (Q9QYN8 whole entry): as the sequence (Q9QYN8 whole entry) above

**Q.** Which Ki [1] does the source give for `N#Cc1ccc(O[C@@H]2CN[C@@H](C(=O)N3CCCN(C4CCC4)CC3)C2)cc1` [Example 64, (3S,5R)-4-[5-(4-Cyclobutyl-[1,4]diazepane-1-carbonyl)-pyrrolidin-3-yloxy]-benzonitrile] here?
**A.** Its Ki is 466 nM.

**Q.** And the Kb [2, 6]?
**A.** The Kb was 12.9 nM.

**Q.** Which results are given for `O=C([C@H]1C[C@H](Oc2cccc(F)c2)CN1)N1CCCN(C2CCC2)CC1` [Example 65, (2R,4S)-4-(3-Fluoro-phenoxy)-2-(4-cyclobutyl-[1,4]diazepane-1-carbonyl)-pyrrolidine]?
**A.** Ki [1]: 12 nM; Kb [2, 6]: 7.41 nM

**Q.** Which results are given for `O=C([C@H]1C[C@H](Oc2ccccc2)CN1)N1CCCN(C2CCC2)CC1` [Example 67, (2R,4S)-4-Phenoxy-2-(4-cyclobutyl-[1,4]diazepane-1-carbonyl)-pyrrolidine]?
**A.** Ki [1, 7]: 502 nM; Kb [2, 6]: 57.5 nM; Ki [3]: 5 nM; Human pA2 [4]: 8.09

**Q.** How did the “Rat pA2” value [2, 8] turn out when `O=C([C@H]1C[C@H](Oc2cccc(Cl)c2)CN1)N1CCCN(C2CCC2)CC1` [Example 68, (2R,4S)-4-(3-chloro-phenoxy)-2-(4-cyclobutyl-[1,4]diazepane-1-carbonyl)-pyrrolidine] was run?
**A.** Its value is 8.59.

**Q.** For `O=C([C@H]1C[C@H](Oc2ccc(Cl)cc2)CN1)N1CCCN(C2CCC2)CC1` [Example 69, (2R,4S)-4-(4-Chloro-phenoxy)-2-(4-cyclobutyl-[1,4]diazepane-1-carbonyl)-pyrrolidine], which Ki [1, 7] is on record?
**A.** Its Ki is 18 nM.

**Q.** And the “Rat pA2” value [2, 8]?
**A.** Its value is 8.30.

**Q.** Which results are given for `CSc1ccc(O[C@@H]2CN[C@@H](C(=O)N3CCCN(C4CCC4)CC3)C2)cc1` [Example 71, (2R,4S)-4-(4-Methylsulfanyl-Phenoxy)-2-(4-cyclobutyl-[1,4]diazepane-1-carbonyl)-pyrrolidine]?
**A.** Ki [1]: 54 nM; Kb [2, 6]: 10.7 nM; Ki [3]: 3 nM; Kb [4]: 2.04 nM

**Q.** How did the Ki [1, 7] turn out when `Cc1cc(O[C@@H]2CN[C@@H](C(=O)N3CCCN(C4CCC4)CC3)C2)ccc1Cl` [Example 72, (2R,4S)-4-(4-Chloro-3-methyl-phenoxy)-2-(4-cyclobutyl-[1,4]diazepane-1-carbonyl)-pyrrolidine] was run?
**A.** The Ki was 36 nM.

**Q.** What about the Kb [2, 6] of the same compound?
**A.** The Kb was 4.9 nM.

**Q.** And the Ki [3]?
**A.** The Ki was 3 nM.

**Q.** What about the Kb [4] of the same compound?
**A.** Its Kb is 1.02 nM.

**Q.** With `O=C([C@H]1C[C@H](Oc2ccc(F)cc2)CN1)N1CCCN(C2CCCC2)CC1` [Example 82, (2R,4S)-2-(4-Cyclopentyl-[1,4]diazepane-1-carbonyl)-4-(4-fluoro-phenoxy)-pyrrolidine] as the compound, how does the Ki [1, 7] read?
**A.** The Ki was 18 nM.

**Q.** And the “Rat pA2” value [2, 8]?
**A.** The value was 8.21.

**Q.** With `N#Cc1ccc(O[C@@H]2CN[C@@H](C(=O)N3CCCN(C4CCCC4)CC3)C2)cc1` [Example 83, (2R,4S)-4-(4-Cyano-phenoxy)-2-(4-cyclopentyl-[1,4]diazepane-1-carbonyl)-pyrrolidine] as the compound, how does the Ki [1] read?
**A.** Its Ki is 16 nM.

**Q.** What about the “Rat pA2” value [2, 8] of the same compound?
**A.** Its value is 8.51.

**Q.** For `N#Cc1ccc(O[C@H]2CN[C@H](C(=O)N3CCCN(C4CCC4)CC3)C2)cc1` [Example 94, (2S,4R)-4-(4-Cyano-phenoxy)-2-(4-cyclobutyl-[1,4]diazepane-1-carbonyl)-pyrrolidine], which Ki [1] is on record?
**A.** Its Ki is 150 nM.

**Q.** What about the Kb [2, 6] of the same compound?
**A.** The Kb was 110 nM.

**Q.** What does the source list for `CSc1ccc(O[C@H]2CN[C@H](C(=O)N3CCCN(C4CCC4)CC3)C2)cc1` [Example 96, (2S,4R)-2-(4-Cyclobutyl-[1,4]diazepane-1-carbonyl)-4-(4-methylsulfanyl-phenoxy)-pyrrolidine]?
**A.** Ki [5]: 11 nM; Ki [1]: 84 nM; Kb [2, 6]: 112 nM; Kb [4]: 20.9 nM

**Q.** With `O=C([C@H]1C[C@H](Oc2ccsc2)CN1)N1CCCN(C2CCC2)CC1` [Example 102, (2R,4S)-2-(4-Cyclobutyl-[1,4]diazepane-1-carbonyl)-4-(thiophen-3-yloxy)-pyrrolidine] as the compound, how does the Kb [2, 6] read?
**A.** Its Kb is 21.9 nM.

**Q.** What about the Ki ([3]; read-out: Human H3 Ki) of the same compound?
**A.** Its Ki is 5 nM.

**Q.** And the “Human pA2” value [4]?
**A.** Its value is 8.65.

**Q.** For `CN1C[C@@H](Oc2ccc(F)cc2)C[C@@H]1C(=O)N1CCCN(C2CCC2)CC1` [Example 110, (2R,4S)-1-Methyl-2-(4-cyclobutyl-[1,4]diazepane-1-carbonyl)-4-(4-fluoro-phenoxy)-pyrrolidine], which Ki [1] is on record?
**A.** Its Ki is 477 nM.

**Q.** And the Kb [2]?
**A.** Its Kb is 16.6 nM.

**Q.** What does the source list for `CC(=O)N1C[C@@H](Oc2ccc(F)cc2)C[C@@H]1C(=O)N1CCCN(C2CCC2)CC1` [Example 120, (2R,4S)-1-[2-(4-Cyclobutyl-[1,4]diazepane-1-carbonyl)-4-(4-fluoro-phenoxy)-pyrrolidin-1-yl]-ethanone]?
**A.** Ki [1, 7]: 30 nM; Kb [2, 6]: 1.62 nM

**Q.** `CC(=O)N1C[C@@H](Oc2cccc(F)c2)C[C@@H]1C(=O)N1CCCN(C2CCC2)CC1` [Example 131, (2R,4S)-1-[2-(4-Cyclobutyl-[1,4]diazepane-1-carbonyl)-4-(3-fluoro-phenoxy)-pyrrolidin-1-yl]-ethanone] was tested. Which Ki [1] did it give?
**A.** Its Ki is 17 nM.

**Q.** And the “Rat pA2” value [2, 8]?
**A.** The value was 8.22.

**Q.** What about the Ki [3] of the same compound?
**A.** The Ki was 2 nM.

**Q.** Which Kb [2, 6] does the source give for `CC(=O)N1C[C@@H](Oc2ccsc2)C[C@@H]1C(=O)N1CCCN(C2CCC2)CC1` [Example 134, (2R,4S)-1-[2-(4-Cyclobutyl-[1,4]diazepane-1-carbonyl)-4-(thiophen-3-yloxy)-pyrrolidin-1-yl]-ethanone] here?
**A.** Its Kb is 8.71 nM.

**Q.** What about the Ki ([3]; read-out: Human H3 Ki) of the same compound?
**A.** The Ki was 3 nM.

**Q.** And the “Human pA2” value [4]?
**A.** The value was 9.28.

**Q.** With `O=C([C@H]1C[C@H](OCc2cccc(F)c2)CN1)N1CCCN(C2CCC2)CC1` [Example 152, (2R,4S)-2-(4-Cyclobutyl-[1,4]diazepane-1-carbonyl)-4-(3-fluoro-benzyloxy)-pyrrolidine] as the compound, how does the Ki [1, 7] read?
**A.** Its Ki is 8 nM.

**Q.** What about the Ki ([3]; read-out: Human H3 Ki) of the same compound?
**A.** The Ki was 4 nM.

**Q.** What does the source list for `O=C([C@H]1C[C@H](OCc2ccc(F)cc2)CN1)N1CCCN(C2CCC2)CC1` [Example 153, (2R,4S)-2-(4-Cyclobutyl-[1,4]diazepane-1-carbonyl)-4-(4-fluoro-benzyloxy)-pyrrolidine]?
**A.** Ki [1, 7]: 13 nM; Ki ([3]; read-out: Human H3 Ki): 3 nM
